# Measurements taken from paper PMC4725312 (Journal of biomolecular screening, 2010).
# Target: TRPM7 (Mus musculus, UniProt Q923J1)
# Format: cell-based
# TRPM7, sequence (Q923J1 whole entry): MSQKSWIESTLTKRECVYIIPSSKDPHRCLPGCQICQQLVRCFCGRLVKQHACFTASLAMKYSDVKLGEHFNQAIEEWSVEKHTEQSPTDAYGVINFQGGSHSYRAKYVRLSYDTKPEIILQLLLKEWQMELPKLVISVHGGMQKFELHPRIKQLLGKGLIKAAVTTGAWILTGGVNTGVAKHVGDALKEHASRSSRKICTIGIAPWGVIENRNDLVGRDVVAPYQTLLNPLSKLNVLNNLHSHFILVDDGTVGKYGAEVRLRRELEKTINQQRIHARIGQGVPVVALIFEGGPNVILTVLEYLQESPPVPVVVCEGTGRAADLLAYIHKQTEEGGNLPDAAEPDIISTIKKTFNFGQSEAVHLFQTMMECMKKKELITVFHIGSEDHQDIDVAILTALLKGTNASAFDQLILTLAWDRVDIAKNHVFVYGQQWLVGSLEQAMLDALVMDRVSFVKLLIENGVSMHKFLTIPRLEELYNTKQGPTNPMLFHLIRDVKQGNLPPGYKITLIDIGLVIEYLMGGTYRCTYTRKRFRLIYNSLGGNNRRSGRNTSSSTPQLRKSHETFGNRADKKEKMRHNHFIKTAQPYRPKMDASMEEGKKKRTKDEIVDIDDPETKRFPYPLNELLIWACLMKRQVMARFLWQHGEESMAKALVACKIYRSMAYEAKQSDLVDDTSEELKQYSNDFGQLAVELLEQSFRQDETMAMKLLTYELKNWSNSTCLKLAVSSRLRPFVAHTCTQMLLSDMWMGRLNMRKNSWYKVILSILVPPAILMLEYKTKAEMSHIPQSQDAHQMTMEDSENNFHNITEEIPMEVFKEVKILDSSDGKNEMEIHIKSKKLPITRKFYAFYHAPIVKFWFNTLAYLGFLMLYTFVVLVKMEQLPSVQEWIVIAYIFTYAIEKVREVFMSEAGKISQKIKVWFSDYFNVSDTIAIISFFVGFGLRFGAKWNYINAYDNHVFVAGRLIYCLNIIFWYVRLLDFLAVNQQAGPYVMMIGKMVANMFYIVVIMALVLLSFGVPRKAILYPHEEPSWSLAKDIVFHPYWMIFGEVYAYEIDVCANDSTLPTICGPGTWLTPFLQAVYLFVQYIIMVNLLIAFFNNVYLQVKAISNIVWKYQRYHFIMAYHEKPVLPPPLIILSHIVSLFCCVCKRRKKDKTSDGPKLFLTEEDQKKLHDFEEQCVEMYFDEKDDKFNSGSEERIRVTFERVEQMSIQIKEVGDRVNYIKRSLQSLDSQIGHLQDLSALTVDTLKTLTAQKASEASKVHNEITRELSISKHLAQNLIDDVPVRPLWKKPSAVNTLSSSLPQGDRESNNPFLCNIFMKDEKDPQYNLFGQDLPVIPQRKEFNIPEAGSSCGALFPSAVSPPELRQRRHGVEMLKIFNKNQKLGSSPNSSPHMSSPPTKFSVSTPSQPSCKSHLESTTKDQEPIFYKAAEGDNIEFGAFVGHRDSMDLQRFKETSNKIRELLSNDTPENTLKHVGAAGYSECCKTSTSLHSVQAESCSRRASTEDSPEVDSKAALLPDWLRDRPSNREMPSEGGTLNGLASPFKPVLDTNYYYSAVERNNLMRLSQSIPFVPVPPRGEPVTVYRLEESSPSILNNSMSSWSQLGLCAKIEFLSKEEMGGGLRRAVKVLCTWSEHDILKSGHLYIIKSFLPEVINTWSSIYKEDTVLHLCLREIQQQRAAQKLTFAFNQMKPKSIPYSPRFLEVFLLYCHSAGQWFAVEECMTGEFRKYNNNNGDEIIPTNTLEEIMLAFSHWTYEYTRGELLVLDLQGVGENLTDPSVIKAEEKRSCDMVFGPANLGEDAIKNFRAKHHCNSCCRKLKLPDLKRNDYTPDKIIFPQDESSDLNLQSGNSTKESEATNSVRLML
structure (smiles),measurement,value
NCCOB(c1ccccc1)c1ccccc1 [2-APB],IC50,30 µM
